Consider 5 molecules from patent US6828091B2, “Method of identifying immunosuppressive agents” (Cytovia, Inc., priority 2000, dated 2004).

Each structure is given as a SMILES string.

In data set [1] the test system is collagen induced arthritis. Briefly: Collagen-induced arthritis (CIA) mouse model. In kind it is in vivo. Particulars: 1 mg/kg subcutaneously daily from 2nd immunization (Day 21), DBA/1 mice, FIG. 3.
The test system of data set [2] is activated T lymphocytes. Briefly: Caspase cascade activation with fluorogenic reporter, activated T lymphocytes. The format is cell-based, Human. Particulars: for Caspase Activity in Activated Cells 24 Hr Induction (Ratio): OKT3-activated human T lymphocytes, 24 hr incubation, ratio Net Sample RFU/Net Control RFU; for Induction of apoptosis in activated T cells (in words): 24 hr. The protocol:
(§1) Human peripheral blood mononuclear cells (PBMC), were purchased from Clonetics, San Diego (cat. No. CC2702). These cells were primarily enriched in T lymphocytes by a process of leukapheresis and density gradient centrifugation (Clonetics), and contain some monocytes and no B lymphocytes or Dendritic cells. Cells are cultured (0.75×10^6 cells/ml) in RPMI 1640 medium containing 10% fetal bovine serum (Gibco), 2 mM L-Glutamine, 25 mM Hepes, 1 mM sodium pyruvate, 1 mM non-essential aminoacids (NEAA) and 1% penicillin/streptomycin solution. Cells were then activated with 100 ng/ml of murine monoclonal antibody (OKT3) to the human T cell receptor (Liu, Y-C., et al., J. Biol. Chem 272: 9979 (1996)). Cells were incubated at 37° C. in a 5% CO2-95% humidity incubator for 3 days. […] In a parallel experiment, resting T lymphocytes that were not activated by the above method were used directly in an experiment. An aliquot of 45 μl of activated or resting T lymphocytes (containing 10^5 cells) was added to a well of a 96-well microtiter plate containing 5 μl of a 10% DMSO in RPMI 1640 medium containing serial 2-fold dilution of the different test compounds starting at a concentration of 10 uM.
(§2) An aliquot of 45 μl of cells was also added to a well of a 96-well microtiter plate containing 5 μl of a 10% DMSO in RPMI 1640 medium without the test compounds as the control sample. The samples were gently mixed by agitation and then incubated at 37° C. for 24 hr in a 5% CO2-95% humidity incubator. After incubation, the samples were removed from the incubator and 50 μl of a solution containing 20 μM of N-(Ac-DEVD)-N′-ethoxycarbonyl-R110 (SEQ ID NO. 1) fluorogenic substrate U.S. Pat. No. 6,342,611; WO 99/18856), 20 mM DTT(Sigma) in Hanks Balanced Salt Solution (HBSS, Gibco) was added. The samples were mixed by agitation and incubated for 1 hr at room temperature. Using a fluorescent plate reader (Model 1420, Wallac Instruments), an initial reading (T=0) was made approximately […] after addition of the substrate solution, employing excitation at 485 nm and emission at 530 nm, to determine the background fluorescence of the control sample. After the 1 hr incubation, the samples were read for fluorescence as above (T=1 hr).
(§3) Calculation: Measured relative fluorescence unit (RFU) values were used to calculate the gain in fluorescence of the sample with the test compound as follows:
(§4) Sample RFU(T=1 hr)−Sample RFU(T=0)=Net Sample RFU (4)
(§5) and the background gain in fluorescence of the control sample (lacking the test compound) as follows:
(§6) Control RFU(I=1 hr)−Control RFU(I=0)=Net Control RFU (5)
(§7) The relative potency of a given test compound is given by the following ratio:
(§8) (Net Sample RFU)/(Net Control RFU) (6)

Data set [3] has as its system resting T lymphocytes. Briefly: Caspase cascade activation with fluorogenic reporter, resting T lymphocytes. Particulars: for Induction of apoptosis in resting T cells (in words): 24 hr; for Caspase Induction in Resting T Cells 24 Hr Induction (Ratio): resting human T lymphocytes, 24 hr incubation, ratio Net Sample RFU/Net Control RFU. The format is cell-based, Human. Here is the method:
as §1, §2, §3, §4, §5, §6, §7, §8

For data set [4], the system named is activated T lymphocytes. The experiment in a line: Cytotoxicity with chromogenic reporter of mitochondrial activity, activated T lymphocytes. In kind it is cell-based, Human. Particulars: 48 hr, absorbance 490 nm, FIG. 1 or 2. Here is the method: (§9) Human peripheral blood mononuclear cells (PBMC), were purchased from Clonetics, San Diego (cat. no. CC2702). These cells were primarily enriched in T lymphocytes by a process of leukapheresis and density gradient centrifugation (Clonetics), and contain some monocytes and no B lymphocytes or Dendritic cells. Cells are cultured (0.75×10^6 cells/ml) in RPMI 1640 medium containing 10% fetal bovine serum (Gibco), 2 mM L-Glutamine, 25 mM Hepes, 1 mM sodium pyruvate, 1 mM non essential aminoacids (NEAA) and 1% penicillin/streptomycin solution. Cells were then activated with 100 ng/ml of murine monoclonal antibody to the human T cell receptor (Liu, Y-C., et al., J. Biol. Chem. 272: 9979 (1996)). Cells were incubated at 37° C. in a 5% CO2-95% humidity incubator for 3 days. […] In a parallel experiment, resting T lymphocytes that were not activated in the above mentioned method were used directly in an experiment.
(§10) An aliquot of 45 μl of activated or resting T lymphocytes (containing 10^5 cells) was added to wells of a 96-well microtiter plate containing 5 μl of a 10% DMSO in RPMI 1640 medium containing different dilutions of the test compounds. […] Using a plate reader (Model 1420, Wallac Instruments), samples were read at absorbance 490 nm.

The subject of data set [5] is resting T lymphocytes. The experiment in a line: Cytotoxicity with chromogenic reporter of mitochondrial activity, resting T lymphocytes. In kind it is cell-based, Human. Particulars: 48 hr, absorbance 490 nm, FIG. 1 or 2. The protocol:
as §9, §10

Take `C[C@]12C=CC(=O)C=C1CC[C@@H]1[C@@H]2[C@@H](O)C[C@@]2(C)[C@H]1CC[C@]2(O)C(=O)CO` [predisolone, Prednisolone]: in data set [1], the “Decrease in cumulative CIA score” value worked out at 75%.

With `Cc1ccc(C2CC(c3c(O)cc(C)oc3=O)=NCCS2)cc1` (stereo not shown) [5-(4-hydroxy-6-methyl-2H-pyran-2-one-3-yl)-7-(4-methylphenyl)-2,3,6,7-tetrahydro-1,4-thiazepine], in the data set with activated T lymphocytes [2], the “Caspase Activity in Activated Cells 24 Hr Induction (Ratio)” value stood at 1.0 and the “Induction of apoptosis in activated T cells (in words)” value is “did not induce apoptosis in either cell type”. Also, in the data set with resting T lymphocytes [3], the “Induction of apoptosis in resting T cells (in words)” value is on record as “did not induce apoptosis in either cell type” and the “Caspase Induction in Resting T Cells 24 Hr Induction (Ratio)” value came to 1.0.

For the molecule `CN(Cc1cnc2nc(N)nc(N)c2n1)c1ccc(C(=O)N[C@@H](CCC(=O)O)C(=O)O)cc1` [methotrexate], the “Cytotoxicity to activated T cells (in words)” value in the data set on activated T lymphocytes [4] was “only cytotoxic to activated”. The “Cytotoxicity to resting T cells (in words)” value with resting T lymphocytes [5] is reported as “not to resting T lymphocytes”.

Consider `CN[C@@H]1C[C@H]2O[C@@](C)([C@@H]1OC)n1c3ccccc3c3c4c(c5c6ccccc6n2c5c31)C(=O)NC4` [staurosporine], for which the “Cytotoxicity to activated T cells (in words)” value in the data set on activated T lymphocytes [4] was “cytotoxic to both activated and resting T cells”. For the same molecule, in the data set on resting T lymphocytes [5], the “Cytotoxicity to resting T cells (in words)” value is “cytotoxic to both activated and resting T cells”.

Turning to `CC(C)=CCC[C@]1(C)C=Cc2c(O)c3c(c(CC=C(C)C)c2O1)O[C@]12C(=C[C@@H]4C[C@H]1C(C)(C)O[C@@]2(C/C=C(/C)C(=O)O)C4=O)C3=O` [gambogic acid], in the data set with activated T lymphocytes [2], the “Caspase Activity in Activated Cells 24 Hr Induction (Ratio)” value is 3.4; the “Induction of apoptosis in activated T cells (in words)” value is “induced apoptosis in both activated and resting T cells”. Also, in the data set on resting T lymphocytes [3], the “Induction of apoptosis in resting T cells (in words)” value was “induced apoptosis in both activated and resting T cells”; the “Caspase Induction in Resting T Cells 24 Hr Induction (Ratio)” value is listed as 2.0.
